According to US10457672B2, “γ-diketones as Wnt/β-catenin signaling pathway activators” (Samumed, LLC, priority 2013, dated 2019):
pEC50: −log10 of the molar value.

Tested on: Wnt/β-catenin signaling pathway (Wnt-responsive SP5 promoter luciferase reporter in SW480 cells)
Assay: Wnt reporter (SP5 promoter-firefly luciferase) activation assay in SW480 cells
Type: cell-based
Conditions: Homo sapiens; SW480 colon cancer cells with SP5 promoter luciferase reporter; 24 h after compound addition; normalized to DMSO; concentration at half maximal activation
Method: Compounds that enhance the Wnt activity, or Activators, were assayed as follows. Reporter cell lines were generated by stably transducing cells of colon cancer cell lines (with a lentiviral construct that included a Wnt-responsive promoter driving expression of the firefly luciferase gene).
Lentiviral constructs were made in which the SP5 promoter, a promoter having eight TCF/LEF binding sites derived from the SP5 promoter, was linked upstream of the firefly luciferase gene. The lentiviral constructs also included a hygromycin resistance gene as a selectable marker. The SP5 promoter construct was used to transduce SW480 cells, a colon cancer cell line having a mutated APC gene that generates a truncated APC protein, leading to de-regulated accumulation of β-catenin.
Cultured SW480 cells bearing a reporter construct were distributed at approximately 10,000 cells per well into 384- or 96-well multiwell plates. Compounds from a small molecule compound library were then added to the wells in half-log dilutions using a maximum concentration of three or ten micromolar. A series of control wells for each cell type received only buffer and compound solvent DMSO. Twenty-four hours after the addition of compound, reporter activity for luciferase was assayed, for example, by addition of the BrightGlo luminescence reagent (Promega) and the Victor3 plate reader (Perkin Elmer). Readings were normalized to DMSO only treated cells, and any activities above DMSO were considered activation. Compounds were considered activators if reporter activities were 2× fold or greater than DMSO. EC50 is the concentration at half maximal activation.

| Compound | pEC50 |
| --- | --- |
| O=C(CCC(=O)c1cccs1)c1ccc2[nH]ccc2c1 [Compound 451, 1-(1H-Indol-5-yl)-4-(thiophen-2-yl)butane-1,4-dione] | 7.43 |
| O=C(CCC(=O)c1ccccc1F)c1cccs1 [Compound 557, 1-(2-Fluorophenyl)-4-(thiophen-2-yl)butane-1,4-dione] | 7.59 |
| COc1ccccc1C(=O)CCC(=O)c1ccccn1 [Compound 547, 1-(2-Methoxyphenyl)-4-(pyridin-2-yl)butane-1,4-dione] | < 5.00 |
| O=C(CCC(=O)c1ccc2c(c1)OCCO2)c1cncnc1 [Compound 345, 1-(2,3-Dihydrobenzo[b][1,4]dioxin-6-yl)-4-(pyrimidin-5-yl)butane-1,4-dione] | < 5.00 |
| O=C(CCC(=O)c1ccc2c(c1)OC(F)(F)O2)c1ccccc1 [Compound 235, 1-(2,2-Difluorobenzo[d][1,3]dioxol-5-yl)-4-phenylbutane-1,4-dione] | 6.31 |
| Cc1ccccc1C(=O)CCC(=O)c1ccc2c(c1)OCO2 [Compound 368, 1-(Benzo[d][1,3]dioxol-5-yl)-4-(o-tolyl)butane-1,4-dione] | 7.80 |
| Cc1ccccc1C(=O)CCC(=O)c1n[nH]c2ccccc12 [Compound 528, 1-(1H-Indazol-3-yl)-4-(o-tolyl)butane-1,4-dione] | 6.83 |
| O=C(CCC(=O)c1ncccc1Cl)c1ccc2c(c1)OCCO2 [Compound 767, 1-(3-Chloropyridin-2-yl)-4-(2,3-dihydrobenzo[b][1,4]dioxin-6-yl) butane-1,4-dione] | 8.66 |
| O=C(CCC(=O)c1ccccc1C(F)(F)F)c1cccs1 [Compound 559, 1-(Thiophen-2-yl)-4-(2-(trifluoromethyl)phenyl)butane-1,4-dione] | 6.47 |
| COc1ccc(C(=O)CCC(=O)c2cccc(C)c2)cc1OC [Compound 425, 1-(3,4-Dimethoxyphenyl)-4-(m-tolyl)butane-1,4-dione] | 5.23 |
| Cc1ccccc1C(=O)CCC(=O)c1ccc2[nH]ccc2c1 [Compound 445, 1-(1H-indol-5-yl)-4-(o-tolyl)butane-1,4-dione] | 8.00 |
| O=C(CCC(=O)c1ccccc1C(F)(F)F)c1ccc2occc2c1 [Compound 275, 1-(Benzofuran-5-yl)-4-(2-(trifluoromethyl)phenyl)butane-1,4-dione] | 8.05 |
| COc1ccccc1C(=O)CCC(=O)c1c[nH]c2ccccc12 [Compound 319, 1-(1H-Indol-3-yl)-4-(2-methoxyphenyl)butane-1,4-dione] | 6.55 |
| O=C(CCC(=O)c1ccncn1)c1ccc2c(c1)OCCO2 [Compound 340, 1-(2,3-Dihydrobenzo[b][1,4]dioxin-6-yl)-4-(pyrimidin-4-yl)butane-1,4-dione] | 6.68 |
| O=C(CCC(=O)c1ncccn1)c1ccc2c(c1)CCCO2 [Compound 362, 1-(Chroman-6-yl)-4-(pyrimidin-2-yl)butane-1,4-dione] | 6.73 |
| Cc1ccc(C(=O)CCC(=O)c2ccc3occc3c2)cc1 [Compound 457, 1-(Benzofuran-5-yl)-4-(p-tolyl)butane-1,4-dione] | 5.54 |
| O=C(CCC(=O)c1ccco1)c1ccc2occc2c1 [Compound 462, 1-(Benzofuran-5-yl)-4-(furan-2-yl)butane-1,4-dione] | 6.37 |
| O=C(CCC(=O)c1cc2c(c(O)c1O)OCCO2)c1ccccc1 [Compound 4, 1-(7,8-dihydroxy-2,3-dihydrobenzo[b][1,4]dioxin-6-yl)-4-phenylbutane-1,4-dione] | < 5.00 |
| COc1cccc(C(=O)CCC(=O)c2ccc3c(c2)OCCO3)c1 [Compound 13, 1-(2,3-Dihydrobenzo[b][1,4]dioxin-6-yl)-4-(3-methoxyphenyl)butane-1,4-dione] | 6.72 |
| COc1ccccc1C(=O)CCC(=O)c1ccc2c(c1)OCCO2 [Compound 12, 1-(2,3-Dihydrobenzo[b][1,4]dioxin-6-yl)-4-(2-methoxyphenyl)butane-1,4-dione] | 8.30 |
| O=C(CCC(=O)c1cccs1)c1ccc2c(c1)OCO2 [Compound 374, 1-(Benzo[d][1,3]dioxol-5-yl)-4-(thiophen-2-yl)butane-1,4-dione] | 7.89 |
| O=C(CCC(=O)c1ccc2c(c1)SCCO2)c1ccccc1 [Compound 28, 1-(2,3-Dihydrobenzo[b][1,4]oxathiin-6-yl)-4-phenylbutane-1,4-dione] | 8.05 |
| O=C(CCC(=O)c1ccccc1C(F)(F)F)c1ccccn1 [Compound 541, 1-(Pyridin-2-yl)-4-(2-(trifluoromethyl)phenyl)butane-1,4-dione] | 5.55 |
| O=C(CCC(=O)c1ccccc1F)c1ccc2ocnc2c1 [Compound 291, 1-(Benzo[d]oxazol-5-yl)-4-(2-fluorophenyl)butane-1,4-dione] | 6.90 |

| Compound | pEC50 |
| --- | --- |
| O=C(CCC(=O)c1ccc2c(c1)SCCO2)c1ccc(C(F)(F)F)cc1 [Compound 18, 1-(2,3-Dihydrobenzo[b][1,4]oxathiin-6-yl)-4-(4-(trifluoromethyl)phenyl)butane-1,4-dione] | < 5.00 |
| O=C(CCC(=O)c1ccccc1F)c1ccc2c(c1)SCCO2 [Compound 19, 1-(2,3-Dihydrobenzo[b][1,4]oxathiin-6-yl)-4-(2-fluorophenyl)butane-1,4-dione] | 8.52 |
| O=C(CCC(=O)c1ccccc1F)c1ccc2[nH]cnc2c1 [Compound 265, 1-(1H-Benzo[d]imidazol-5-yl)-4-(2-fluorophenyl)butane-1,4-dione] | 6.70 |
| O=C(CCC(=O)c1ccco1)c1ccc2[nH]ncc2c1 [Compound 515, 1-(Furan-2-yl)-4-(1H-indazol-5-yl)butane-1,4-dione] | 6.90 |
| O=C(CCC(=O)c1ccccc1C(F)(F)F)c1ccc2sccc2c1 [Compound 301, 1-(Benzo[b]thiophen-5-yl)-4-(2-(trifluoromethyl)phenyl)butane-1,4-dione] | 7.41 |
| O=C(CCC(=O)c1ccc2c(c1)OCCO2)c1cccc(C(F)(F)F)c1 [Compound 9, 1-(2,3-Dihydrobenzo[b][1,4]dioxin-6-yl)-4-(3-(trifluoromethyl)phenyl)butane-1,4-dione] | 7.00 |
| O=C(CCC(=O)c1ccc2occc2c1)c1ccccc1 [Compound 287, 1-(Benzofuran-5-yl)-4-phenylbutane-1,4-dione] | 7.06 |
| O=C(CCC(=O)c1ccc2sccc2c1)c1ccccc1 [Compound 313, 1-(Benzo[b]thiophen-5-yl)-4-phenylbutane-1,4-dione] | 7.36 |
| Cc1ccccc1C(=O)CCC(=O)c1ccc2c(c1)CCCO2 [Compound 358, 1-(Chroman-6-yl)-4-(o-tolyl)butane-1,4-dione] | 7.85 |
| Cc1ccccc1C(=O)CCC(=O)c1ccc2ocnc2c1 [Compound 485, 1-(Benzo[d]oxazol-5-yl)-4-(o-tolyl)butane-1,4-dione] | < 5.00 |
| COc1ccc(C(=O)CCC(=O)c2cccnn2)cc1OC [Compound 433, 1-(3,4-Dimethoxyphenyl)-4-(pyridazin-3-yl)butane-1,4-dione] | < 5.00 |
| O=C(CCC(=O)c1ccc2[nH]ncc2c1)c1ccc(F)cc1 [Compound 497, 1-(4-Fluorophenyl)-4-(1H-indazol-5-yl)butane-1,4-dione] | 7.32 |
| O=C(CCC(=O)c1ccc2ocnc2c1)c1ccccc1 [Compound 300, 1-(Benzo[d]oxazol-5-yl)-4-phenylbutane-1,4-dione] | 7.74 |
| O=C(CCC(=O)c1c[nH]c2ccccc12)c1ccccc1C(F)(F)F [Compound 314, 1-(1H-Indol-3-yl)-4-(2-(trifluoromethyl)phenyl)butane-1,4-dione] | 7.80 |
| COc1ccccc1C(=O)CCC(=O)c1ccc2sccc2c1 [Compound 307, 1-(Benzo[b]thiophen-5-yl)-4-(2-methoxyphenyl)butane-1,4-dione] | 7.26 |
| O=C(CCC(=O)c1c[nH]c2ccccc12)c1ccccc1F [Compound 317, 1-(2-Fluorophenyl)-4-(1H-indol-3-yl)butane-1,4-dione] | < 5.00 |
| Cc1ccc(C(=O)CCC(=O)c2ccc3[nH]ccc3c2)cc1 [Compound 447, 1-(1H-Indol-5-yl)-4-(p-tolyl)butane-1,4-dione] | < 5.00 |
| O=C(CCC(=O)c1ncccn1)c1ccc2c(c1)CCCC2 [Compound 737, 1-(Pyrimidin-2-yl)-4-(5,6,7,8-tetrahydronaphthalen-2-yl)butane-1,4-dione] | 7.66 |
| O=C(CCC(=O)c1ccccn1)c1ccc2c(c1)OC(F)(F)O2 [Compound 232, 1-(2,2-Difluorobenzo[d][1,3]dioxol-5-yl)-4-(pyridin-2-yl)butane-1,4-dione] | 6.87 |
| O=C(CCC(=O)c1c[nH]c2ccccc12)c1ccccc1 [Compound 325, 1-(1H-Indol-3-yl)-4-phenylbutane-1,4-dione] | 7.20 |
| O=C(CCC(=O)c1ccc2[nH]cnc2c1)c1cccc(C(F)(F)F)c1 [Compound 263, 1-(1H-Benzo[d]imidazol-5-yl)-4-(3-(trifluoromethyl)phenyl)butane-1,4-dione] | < 5.00 |
| COc1ccccc1C(=O)CCC(=O)c1ccc2c(c1)OCO2 [Compound 216, 1-(Benzo[d][1,3]dioxol-5-yl)-4-(2-methoxyphenyl)butane-1,4-dione] | 7.96 |
| O=C(CCC(=O)c1ncccc1F)c1ccc2c(c1)OCCO2 [Compound 569, 1-(2,3-Dihydrobenzo[b][1,4]dioxin-6-yl)-4-(3-fluoropyridin-2-yl) butane-1,4-dione] | 8.71 |
